Test results from US20170291905A1, “ARGININE […] INHIBITORS AND USES THEREOF” (Epizyme, Inc., priority 2014, published 2017).
Where a name gives a salt, the structure may show the parent alone.

These molecules were tested against full-length human PRMT6 (Flag- and His-tagged) (Homo sapiens, UniProt Q96LA8) (assay: PRMT6 biochemical assay (3H-SAM Flashplate, histone H4 36-50 K44me1 peptide)). Conditions: 1 nM PRMT6, 30 min preincubation, 75 nM peptide.
Chain of full-length human PRMT6 (Flag- and His-tagged) (Q96LA8 with tags, fused parts or gaps): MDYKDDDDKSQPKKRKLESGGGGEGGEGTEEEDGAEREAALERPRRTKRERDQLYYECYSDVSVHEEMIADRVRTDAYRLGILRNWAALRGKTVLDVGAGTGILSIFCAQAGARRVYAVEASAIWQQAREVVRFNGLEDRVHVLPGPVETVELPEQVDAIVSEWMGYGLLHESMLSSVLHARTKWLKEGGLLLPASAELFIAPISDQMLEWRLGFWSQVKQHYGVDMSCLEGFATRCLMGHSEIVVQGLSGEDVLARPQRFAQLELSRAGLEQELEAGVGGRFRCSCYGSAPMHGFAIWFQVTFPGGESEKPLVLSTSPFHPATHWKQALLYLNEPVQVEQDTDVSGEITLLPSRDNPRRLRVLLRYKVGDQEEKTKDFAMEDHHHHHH
Source text: S-adenosylmethionine (SAM), S-adenosylhomocysteine (SAH), bicine, Tween20, dimethylsulfoxide (DMSO), bovine skin gelatin (BSG), sodium butyrate and Tris(2-carboxyethyl)phosphine hydrochloride solution (TCEP) were purchased from Sigma-Aldrich at the highest level of purity possible. ^3H-SAM was purchase from American Radiolabeled Chemicals with a specific activity of 80 Ci/mmol. 384-well streptavidin Flashplates were purchased from PerkinElmer.
Peptide representative of human histone H4 residues 36-50 was synthesized with an N-terminal linker-affinity tag motif and a C-terminal amide cap by 21st Century Biochemicals. The peptide was purified by high-performance liquid chromatography (HPLC) to greater than 95% purity and confirmed by liquid chromatography mass spectrometry (LC-MS). The sequence was Biot-Ahx-[…]-amide and contained a monomethylated lysine at position 44 (SEQ ID NO.:5).
Full-length human PRMT6 (NM_018137.2) transcript clone was amplified from an HEK 293 cDNA library, incorporating a flanking 5′ sequence encoding a FLAG tag ([…]) (SEQ ID NO.:6) fused directly to Ser 2 of PRMT6 and a 3′ sequence encoding a hexa His sequence (HHHHHH) (SEQ ID NO.: 17) fused directly to Asp 375. The amplified gene was subcloned into pFastBacMam (Viva Biotech).
Recombinant baculovirus were generated according to Bac-to-Bac kit instructions (Life Technologies). […] Infections were carried out at 37° C. for 48 hours, harvested by centrifugation, and stored at −80° C. for purification.
Column was washed with 20 mM imidazole in the same buffer and Flag-PRMT6-His was eluted with 150 mM imidazole. Pooled fractions were dialysed against buffer Ni-A and further purified by anti-flag M2 affinity chromatography. Flag-PRMT6-His was eluted with 200 ug/ml FLAG peptide in the same buffer. Pooled fractions were dialysed in 20 mM Tris, 150 mM NaCl, 10% glycerol and 5 mM β-mercaptoethanol, pH 7.8. The purity of recovered protein was 95%.
General Procedure for PRMT6 Enzyme Assays on Peptide Substrates.
The assays were all performed in a buffer consisting of 20 mM Bicine (pH=7.6), 1 mM TCEP, 0.005% BSG, and 0.002% Tween 20, prepared on the day of use. Compounds in 100% DMSO (1 ul) were spotted into a polypropylene 384-well V-bottom plates (Greiner) using a Platemate Plus outfitted with a 384-channel head (Thermo Scientific). DMSO (1 ul) was added to Columns 11, 12, 23, 24, rows A-H for the maximum signal control and 1 ul of SAH, a known product and inhibitor of PRMT6, was added to columns 11, 12, 23, 24, rows I-P for the minimum signal control. A cocktail (40 ul) containing the PRMT6 enzyme was added by Multidrop Combi (Thermo-Fisher). The compounds were allowed to incubate with PRMT6 for 30 min at room temperature, then a cocktail (10 ul) containing SAM and peptide was added to initiate the reaction (final volume=51 ul). The final concentrations of the components were as follows: PRMT6 was 1 nM, ^3H-SAM was 200 nM, non-radiolabeled SAM was 250 nM, peptide was 75 nM, SAH in the minimum signal control wells was 1 mM, and the DMSO concentration was 2%. The assays were stopped by the addition of non-radiolabeled SAM (10 ul) to a final concentration of 400 uM, which dilutes the ^3H-SAM to a level where its incorporation into the peptide substrate is no longer detectable. 50 ul of the reaction in the 384-well polypropylene plate was then transferred to a 384-well Flashplate and the biotinylated peptides were allowed to bind to the streptavidin surface for at least 1 hour before being washed once with 0.1% Tween20 in a Biotek ELx405 plate washer. The plates were then read in a PerkinElmer TopCount plate reader to measure the quantity of ^3H-labeled peptide bound to the Flashplate surface, measured as disintegrations per minute (dpm) or alternatively, referred to as counts per minute (cpm).
Where dpm=disintegrations per minute, cmpd=signal in assay well, and min and max are the respective minimum and maximum signal controls. […]
`CNCCN(C)Cc1c[nH]nc1C1CCC(OCCCOC)C2(CCCC2)C1` (mixture of isomers) [compound 19, N1-((3-(10-(3-methoxypropoxy)spiro[4.5]decan-7-yl)-1H-pyrazol-4-yl)methyl)-N1,N2-dimethylethane-1,2-diamine dihydrochloride] was tested, and the IC50 was 191 nM.
`CNCCN(C)Cc1c[nH]nc1[C@@H]1CC[C@@H](OCCCOC)C2(CCCC2)C1` (racemic) [compound 26, N1-((3-((7R,10R)-10-(3-methoxypropoxy)spiro[4.5]decan-7-yl)-1H-pyrazol-4-yl)methyl)-N1,N2-dimethylethane-1,2-diamine] showed an IC50 of 107 nM.
With `CNCCN(C)Cc1c[nH]nc1[C@@H]1CC[C@H](OCCCOC)C2(CCCC2)C1` (racemic) [compound 27, N1-((3-((7R,10S)-10-(3-methoxypropoxy)spiro[4.5]decan-7-yl)-1H-pyrazol-4-yl)methyl)-N1,N2-dimethylethane-1,2-diamine] the IC50 was 383 nM.
For `CNCCN(C)Cc1c[nH]nc1C1CC(COCC2CC2)CC(COCC2CC2)C1` (centres unmarked) [compound 2], the IC50 was 741 nM.
For `CNCCN(C)Cc1c[nH]nc1[C@H]1CC[C@@]2(CCCCO2)CC1` [compound 3], the IC50 was 27.7 nM.
Work on `CNCCN(C)Cc1c[nH]nc1[C@H]1CC[C@]2(CCCOC2)CC1` [compound 4, N1-((3-((6s,9s)-2-oxaspiro[5.5]undecan-9-yl)-1H-pyrazol-4-yl)methyl)-N1,N2-dimethylethane-1,2-diamine] yielded an IC50 of 33.1 nM.
Molecule `CNCCN(C)Cc1c[nH]nc1[C@H]1CC[C@@]2(CCCOC2)CC1` [compound 5, N1-((3-((6r,9r)-2-oxaspiro[5.5]undecan-9-yl)-1H-pyrazol-4-yl)methyl)-N1,N2-dimethylethane-1,2-diamine] has an IC50 of 35.9 nM.
`CNCCN(C)Cc1c[nH]nc1C1CCC(COCC(C)C)(COCC(C)C)CC1` [compound 6] was tested, and the IC50 was 32 nM.
For `CNCCN(C)Cc1c[nH]nc1C1CCC2(CCC(OC)CC2)CC1` (centres unmarked) [compound 9, N1-((3-(9-methoxyspiro[5.5]undecan-3-yl)-1H-pyrazol-4-yl)methyl)-N1,N2-dimethylethane-1,2-diamine], the IC50 was 13.5 nM.
`CNCCN(C)Cc1c[nH]nc1[C@H]1CC[C@]2(CCN(CCC(C)C)C2=O)CC1` [compound 10] showed an IC50 of 38.5 nM.
`CNCCN(C)Cc1c[nH]nc1[C@H]1CC[C@@]2(CCN(CCC(C)C)C2=O)CC1` [compound 11, (5r,8r)-2-isopentyl-8-(4-((methyl(2-(methylamino)ethyl)amino)methyl)-1H-pyrazol-3-yl)-2-azaspiro[4.5]decan-1-one] showed an IC50 of 18.6 nM.
`CNCCN(C)Cc1c[nH]nc1C1C[C@@H](C(=O)N(C)CC(C)C)C(C)(C)[C@H](C(=O)N(C)CC(C)C)C1` (some centres unmarked) [compound 12] was tested, and the IC50 was > 10000 nM.
With `CNCCN(C)Cc1c[nH]nc1C1C[C@H](C(=O)NCCOC)C(C)(C)[C@H](C(=O)NCCOC)C1` (some centres unmarked) [compound 13] the IC50 was > 10000 nM.
For `CCN(C)C(=O)C1CC(c2n[nH]cc2CN(C)CCNC)CC(C(=O)NCCC(C)C)C1(C)C` (centres unmarked) [compound 14, N1-ethyl-N3-isopentyl-N1,2,2-trimethyl-5-(4-((methyl(2-(methylamino)ethyl)amino)methyl)-1H-pyrazol-3-yl)cyclohexane-1,3-dicarboxamide], the IC50 was > 10000 nM.
`CNCCN(C)Cc1c[nH]nc1C1=CCC(CF)(CF)CC1` [compound 15, N-((3-(4,4-bis(fluoromethyl)cyclohex-1-en-1-yl)-1H-pyrazol-4-yl)methyl)-N1,N2-dimethylethane-1,2-diamine] gave an IC50 of 16.7 nM.
In the case of `CNCCN(C)Cc1c[nH]nc1C1=CCC(COCC(F)(F)F)CC1` (centres unmarked) [compound 16, N1,N2-dimethyl-N1-((3-(4-((2,2,2-trifluoroethoxy)methyl)cyclohex-1-en-1-yl)-1H-pyrazol-4-yl)methyl)ethane-1,2-diamine], the IC50 is reported as 17 nM.
For `CNCCN(C)Cc1c[nH]nc1C1CCC(C)(C)[C@H](OCC(C)C)C1` (stereo partly drawn) [compound 20, ({3-[(3R)-4,4-dimethyl-3-(2-methylpropoxy)cyclohexyl]-1H-pyrazol-4-yl}methyl)(methyl)[2-(methylamino)ethyl]amine], the IC50 was 74.8 nM.
`CCC1CC(c2n[nH]cc2CN(C)CCNC)CC(C(=O)NCCOC)C1(C)C` (centres unmarked) [compound 21, 3-ethyl-N-(2-methoxyethyl)-2,2-dimethyl-5-[4-([methyl[2-(methylamino)ethyl]amino]methyl)-1H-pyrazol-3-yl]cyclohexane-1-carboxamide dihydrochloride] gave an IC50 of 789 nM.
`CCC1(CC)CC2(CCC(c3n[nH]cc3CN(C)CCNC)CC2)N(C)C1=O` (centres unmarked) [compound 22, 3,3-diethyl-1-methyl-8-(4-((methyl(2-(methylamino)ethyl)amino)methyl)-1H-pyrazol-3-yl)-1-azaspiro[4.5]decan-2-one] gave an IC50 of 62.7 nM.
`CNCCN(C)Cc1c[nH]nc1[C@H]1CC[C@@H](COCC(F)(F)F)CC1` [compound 23, N1,N2-dimethyl-N1-((3-((1s,4s)-4-((2,2,2-trifluoroethoxy)methyl)cyclohexyl)-1H-pyrazol-4-yl)methyl)ethane-1,2-diamine] was tested, and the IC50 was 78.5 nM.
Molecule `CNCCN(C)Cc1c[nH]nc1[C@H]1CC[C@H](COCC(F)(F)F)CC1` [compound 24, N1,N2-dimethyl-N1-((3-((1r,4r)-4-((2,2,2-trifluoroethoxy)methyl)cyclohexyl)-1H-pyrazol-4-yl)methyl)ethane-1,2-diamine] has an IC50 of 21.6 nM.
`CNCCN(C)Cc1cn(C)nc1C1CCC(C)(C)[C@@H](C(=O)NCC(C)C)C1` (some centres unmarked) [compound 25] gave an IC50 of 1610 nM.
In the case of `CNCCNCc1c[nH]nc1[C@H]1CC[C@@]2(CC1)CC(C)(C)CO2` [compound 28, N1-((3-((5s,8s)-3,3-dimethyl-1-oxaspiro[4.5]decan-8-yl)-1H-pyrazol-4-yl)methyl)-N2-methylethane-1,2-diamine], the IC50 is reported as 262 nM.
In the case of `CNCCNCc1c[nH]nc1[C@H]1CC[C@]2(CC1)CC(C)(C)CO2` [compound 29, N1-((3-((5r,8r)-3,3-dimethyl-1-oxaspiro[4.5]decan-8-yl)-1H-pyrazol-4-yl)methyl)-N2-methylethane-1,2-diamine], the IC50 is reported as 1910 nM.
With `CNCCN(C)Cc1c[nH]nc1C1CCC(C)(C)[C@H](COCCCOC)C1` (stereo partly drawn) [compound 30, {2-[({3-[(3R)-3-[(3-methoxypropoxy)methyl]-4,4-dimethylcyclohexyl]-1H-pyrazol-4-yl}methyl)(methyl)amino]ethyl}(methyl)amine] the IC50 was 60.3 nM.
Molecule `CCOC[C@@H]1CC(c2n[nH]cc2CN(C)CCNC)CCC1(C)C` (stereo partly drawn) [compound 31, {2-[({3-[(3R)-3-(ethoxymethyl)-4,4-dimethylcyclohexyl]-1H-pyrazol-4-yl}methyl)(methyl)amino]ethyl}(methyl)amine] has an IC50 of 45.6 nM.
`CNCCN(C)Cc1c[nH]nc1C1CCC(C)(C)[C@H](CO)C1` (stereo partly drawn) [compound 32, [(1R)-2,2-dimethyl-5-[4-({methyl[2-(methylamino)ethyl]amino}methyl)-1H-pyrazol-3-yl]cyclohexyl]methanol] showed an IC50 of 16.3 nM.
In the case of `CCC1(CC)C[C@]2(CC[C@H](c3n[nH]cc3CN(C)CCNC)CC2)OC1=O` [compound 33, (5s,8s)-3,3-diethyl-8-(4-((methyl(2-(methylamino)ethyl)amino)methyl)-1H-pyrazol-3-yl)-1-oxaspiro[4.5]decan-2-one], the IC50 is reported as 20.8 nM.
Molecule `CCC1(CC)C[C@]2(CC[C@@H](c3n[nH]cc3CN(C)CCNC)CC2)OC1=O` [compound 34, (5r,8r)-3,3-diethyl-8-(4-((methyl(2-(methylamino)ethyl)amino)methyl)-1H-pyrazol-3-yl)-1-oxaspiro[4.5]decan-2-one] has an IC50 of 10.6 nM.
